Assay results published in PubChem BioAssay (NCI).
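A five-concentration, 48-hour dose response in 96-well plates underlies each endpoint, interpolated linearly between surrounding concentrations. GI50 marks 50% less growth. Definition used: TGI = concentration required for complete inhibition of growth.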

What was measured:
Experiment in all cases: growth of human tumour cells (NCI), 48 h
[1] = test system: ACHN renal
[2] = test system: SK-MEL-5 melanoma
[3] = test system: HOP-92 NSCLC
[4] = test system: NCI-H460 lung
[5] = test system: HOP-62 NSCLC
[6] = test system: HCC-2998 colon
[7] = test system: SK-MEL-2 melanoma
[8] = test system: HT29 colon
[9] = test system: UACC-257 melanoma
[10] = test system: NCI-H522 lung
[11] = test system: MALME-3M melanoma
[12] = test system: RXF 393 renal
[13] = test system: BT-549 breast
[14] = test system: DU-145 prostate
[15] = test system: MDA-MB-435
[16] = test system: OVCAR-3 ovarian
[17] = test system: NCI/ADR-RES ovarian
[18] = test system: UO-31 renal
[19] = test system: SW-620 colon
[20] = test system: PC-3 prostate
[21] = test system: A549 NSCLC
[22] = test system: HCT-116 colon
[23] = test system: SNB-19 CNS
[24] = test system: A498 renal
[25] = test system: SR leukemia
[26] = test system: NCI-H226 lung
[27] = test system: MDA-MB-231 breast
[28] = test system: UACC-62 melanoma
[29] = test system: MCF7 breast
[30] = test system: SF-539 CNS
[31] = test system: K-562 leukemia
[32] = test system: M14 melanoma
[33] = test system: SK-MEL-28 melanoma
[34] = test system: LOX IMVI melanoma
[35] = test system: U251 CNS
[36] = test system: SN12C renal
[37] = test system: KM12 colon
[38] = test system: SNB-75 CNS
[39] = test system: RPMI-8226 leukemia
[40] = test system: MOLT-4 leukemia
[41] = test system: OVCAR-5 ovarian
[42] = test system: 786-0 renal
[43] = test system: OVCAR-8 ovarian
[44] = test system: HL-60(TB) leukemia
[45] = test system: COLO 205 colon
[46] = test system: T-47D breast
[47] = test system: NCI-H23 lung
[48] = test system: CCRF-CEM leukemia
[49] = test system: SF-268 CNS
[50] = test system: SK-OV-3 ovarian
[51] = test system: OVCAR-4 ovarian
[52] = test system: HCT-15 colon
[53] = test system: SF-295 CNS
[54] = test system: TK-10 renal
[55] = test system: HS 578T breast
[56] = test system: IGROV1 ovarian
[57] = test system: EKVX NSCLC
[58] = test system: CAKI-1 renal

Structure (SMILES): CC[C@H]1[C@@H]2C=C[C@@H]3[C@H]4C/C=C\C(=O)NCCC[C@@H]5NC(=O)/C(=C(O)/C=C/[C@@H]4C[C@@H]3[C@H]2C[C@H]1C)C5=O
- GI50 [1]: 420 nM
- TGI [1]: 1570 nM
- GI50 [2]: 900 nM
- TGI [2]: 2200 nM
- GI50 [3]: 1410 nM
- TGI [3]: 2820 nM
- GI50 [4]: 409 nM
- TGI [4]: 1840 nM
- GI50 [5]: 1400 nM
- TGI [5]: 3030 nM
- GI50 [6]: 1800 nM
- TGI [6]: 3620 nM
- GI50 [7]: 2540 nM
- TGI [7]: 6010 nM
- GI50 [8]: 1730 nM
- TGI [8]: 3310 nM
- GI50 [9]: 1710 nM
- TGI [9]: 3490 nM
- GI50 [10]: 6700 nM
- TGI [10]: 15700 nM
- GI50 [11]: 1390 nM
- TGI [11]: 2830 nM
- GI50 [12]: 236 nM
- TGI [12]: 840 nM
- GI50 [13]: 1290 nM
- TGI [13]: 2740 nM
- GI50 [14]: 715 nM
- TGI [14]: 1940 nM
- GI50 [15]: 982 nM
- TGI [15]: 2250 nM
- GI50 [16]: 202 nM
- TGI [16]: 556 nM
- GI50 [17]: 815 nM
- TGI [17]: 2360 nM
- GI50 [18]: 546 nM
- TGI [18]: 1910 nM
- GI50 [19]: 2460 nM
- TGI [19]: 7590 nM
- GI50 [20]: 865 nM
- TGI [20]: 2300 nM
- GI50 [21]: 2000 nM
- TGI [21]: 3990 nM
- GI50 [22]: 1480 nM
- TGI [22]: 3030 nM
- GI50 [23]: 1040 nM
- TGI [23]: 2420 nM
- GI50 [24]: 1670 nM
- TGI [24]: 3080 nM
- GI50 [25]: 264 nM
- TGI [25]: 1940 nM
- GI50 [26]: 738 nM
- TGI [26]: 2560 nM
- GI50 [27]: 1300 nM
- TGI [27]: 2660 nM
- GI50 [28]: 1660 nM
- TGI [28]: 3170 nM
- GI50 [29]: 1750 nM
- TGI [29]: 3880 nM
- GI50 [30]: 1300 nM
- TGI [30]: 2720 nM
- GI50 [31]: 1960 nM
- TGI [31]: 4240 nM
- GI50 [32]: 1580 nM
- TGI [32]: 3080 nM
- GI50 [33]: 1890 nM
- TGI [33]: 4060 nM
- GI50 [34]: 662 nM
- TGI [34]: 1960 nM
- GI50 [35]: 1820 nM
- TGI [35]: 3330 nM
- GI50 [36]: 569 nM
- TGI [36]: 1990 nM
- GI50 [37]: 3030 nM
- TGI [37]: 9880 nM
- GI50 [38]: 415 nM
- TGI [38]: 1580 nM
- GI50 [39]: 1770 nM
- TGI [39]: 4230 nM
- GI50 [40]: 1480 nM
- TGI [40]: 3470 nM
- GI50 [41]: 1660 nM
- TGI [41]: 3500 nM
- GI50 [42]: 440 nM
- TGI [42]: 1590 nM
- GI50 [43]: 333 nM
- TGI [43]: 1370 nM
- GI50 [44]: 1920 nM
- TGI [44]: 3990 nM
- GI50 [45]: 3240 nM
- TGI [45]: 8440 nM
- GI50 [46]: 1700 nM
- TGI [46]: 4100 nM
- GI50 [47]: 1810 nM
- TGI [47]: 4280 nM
- GI50 [48]: 1590 nM
- TGI [48]: 4290 nM
- GI50 [49]: 448 nM
- TGI [49]: 1860 nM
- GI50 [50]: 1730 nM
- TGI [50]: 3480 nM
- GI50 [51]: 664 nM
- TGI [51]: 2160 nM
- GI50 [52]: 425 nM
- TGI [52]: 1860 nM
- GI50 [53]: 1420 nM
- TGI [53]: 2800 nM
- GI50 [54]: 1350 nM
- TGI [54]: 2710 nM
- GI50 [55]: 1440 nM
- TGI [55]: 3810 nM
- GI50 [56]: 252 nM
- TGI [56]: 756 nM
- GI50 [57]: 1450 nM
- TGI [57]: 3310 nM

Structure (SMILES): CNCC#Cc1c(F)ccc2c1/C(=C/c1[nH]ccc1OC)C(=O)N2
- GI50 [1]: 53 nM
- TGI [1]: 2640 nM
- GI50 [2]: 210 nM
- TGI [2]: 1420 nM
- GI50 [3]: 669 nM
- TGI [3]: 1960 nM
- GI50 [4]: 124 nM
- TGI [4]: 2440 nM
- GI50 [5]: 307 nM
- TGI [5]: 2680 nM
- GI50 [6]: 398 nM
- TGI [6]: 1630 nM
- GI50 [7]: 79.9 nM
- TGI [7]: 369 nM
- GI50 [8]: 133 nM
- TGI [8]: 1820 nM
- GI50 [9]: 619 nM
- TGI [9]: 2910 nM
- GI50 [10]: 299 nM
- TGI [10]: 1170 nM
- GI50 [11]: 608 nM
- TGI [11]: 2550 nM
- GI50 [12]: 45.4 nM
- TGI [12]: 147 nM
- GI50 [13]: 338 nM
- TGI [13]: 1540 nM
- GI50 [14]: 136 nM
- TGI [14]: 2920 nM
- GI50 [15]: 156 nM
- TGI [15]: 1410 nM
- GI50 [16]: 516 nM
- TGI [16]: 2740 nM
- GI50 [17]: 363 nM
- TGI [17]: 3270 nM
- GI50 [18]: 130 nM
- TGI [18]: 2600 nM
- GI50 [19]: 136 nM
- TGI [19]: 2380 nM
- GI50 [20]: 320 nM
- TGI [20]: 2880 nM
- GI50 [21]: 129 nM
- TGI [21]: 2710 nM
- GI50 [22]: 82.7 nM
- TGI [22]: 3100 nM
- GI50 [58]: 23.8 nM
- TGI [58]: 521 nM
- GI50 [23]: 621 nM
- TGI [23]: 2890 nM
- GI50 [24]: 179 nM
- TGI [24]: 1410 nM
- GI50 [25]: 71.5 nM
- TGI [25]: 513 nM
- GI50 [26]: 211 nM
- TGI [26]: 1360 nM
- GI50 [27]: 416 nM
- TGI [27]: 2180 nM
- GI50 [28]: 249 nM
- TGI [28]: 815 nM
- GI50 [29]: 210 nM
- TGI [29]: 3040 nM
- GI50 [30]: 243 nM
- TGI [30]: 853 nM
- GI50 [31]: 650 nM
- TGI [31]: 3610 nM
- GI50 [32]: 181 nM
- TGI [32]: 1480 nM
- GI50 [33]: 329 nM
- TGI [33]: 2880 nM
- GI50 [34]: 142 nM
- TGI [34]: 2180 nM
- GI50 [35]: 121 nM
- TGI [35]: 2750 nM
- GI50 [36]: 118 nM
- TGI [36]: 2860 nM
- GI50 [37]: 56.5 nM
- TGI [37]: 2410 nM
- GI50 [38]: 78.6 nM
- TGI [38]: 1810 nM
- GI50 [39]: 322 nM
- TGI [39]: 1470 nM
- GI50 [40]: 132 nM
- TGI [40]: 2260 nM
- GI50 [41]: 323 nM
- TGI [41]: 3160 nM
- GI50 [42]: 215 nM
- TGI [42]: 3270 nM
- GI50 [43]: 161 nM
- TGI [43]: 3220 nM
- GI50 [44]: 72.2 nM
- TGI [44]: 260 nM
- GI50 [45]: 113 nM
- TGI [45]: 480 nM
- GI50 [46]: 671 nM
- TGI [46]: 4360 nM
- GI50 [47]: 283 nM
- TGI [47]: 1260 nM
- GI50 [48]: 107 nM
- TGI [48]: 954 nM
- GI50 [49]: 279 nM
- TGI [49]: 2100 nM
- GI50 [50]: 104 nM
- TGI [50]: 3520 nM
- GI50 [51]: 495 nM
- TGI [51]: 3200 nM
- GI50 [52]: 86.6 nM
- TGI [52]: 2780 nM
- GI50 [53]: 389 nM
- TGI [53]: 3550 nM
- GI50 [54]: 98 nM
- TGI [54]: 1890 nM
- GI50 [55]: 195 nM
- TGI [55]: 3680 nM
- GI50 [56]: 317 nM
- TGI [56]: 3150 nM
